Series [1] concerns the target T1, Replicase polyprotein 1ab (Severe acute respiratory syndrome coronavirus 2, UniProt P0DTD1).
The target in series [2] is T1, Replicase polyprotein 1ab. The source holds these as a separate data set.
The target of another series is Replicase polyprotein 1a (Severe acute respiratory syndrome-related coronavirus, UniProt P0C6U8).
The test system of another series is Vero. In words: Cytotoxicity against green monkey Vero cells. As to conditions: chlorocebus sabaeus. Format: toxicity, cell-based.
The next series addresses Procathepsin L (Homo sapiens, UniProt P07711).
Series [3] has as its target Replicase polyprotein 1ab (Severe acute respiratory syndrome coronavirus 2) (UniProt P0DTD1). The settings on record: time 70.0 min.
Series [4] has the same target. The settings on record: dose 40.0 µM, time 30.0 min.
Another series concerns SARS-CoV-2. In words: microbe, parasite or virus in culture. The settings on record: Severe acute respiratory syndrome coronavirus 2, Vero, 16 h.
Series [5] has as its target T1, Replicase polyprotein 1ab. This is another data set of the same source.

Here are results for seven compounds from ChEMBL document CHEMBL5335774 (Eur J Med Chem, 2023).

In general, pIC50 refers to −log10 of the IC50, conventionally taken in molar units. The inhibition is the relative decrease from the control value, in per cent. As usually defined, the ΔTm is the shift of the melting midpoint relative to a reference.

Some results are limits rather than exact numbers.

Chain of Procathepsin L (P07711 whole entry): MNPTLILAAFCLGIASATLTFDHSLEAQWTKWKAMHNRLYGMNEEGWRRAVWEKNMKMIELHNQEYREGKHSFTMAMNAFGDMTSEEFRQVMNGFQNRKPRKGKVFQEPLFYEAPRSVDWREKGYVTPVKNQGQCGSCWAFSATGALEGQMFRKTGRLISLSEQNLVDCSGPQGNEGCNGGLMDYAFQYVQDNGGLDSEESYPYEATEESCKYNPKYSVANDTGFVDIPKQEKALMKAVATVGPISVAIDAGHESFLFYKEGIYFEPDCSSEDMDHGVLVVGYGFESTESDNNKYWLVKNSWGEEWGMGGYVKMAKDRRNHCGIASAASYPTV

`S=C(NCc1cccnc1)OCc1ccccc1` returned a pIC50 in series [1] below 4. Moreover, the IC50 in series [1] (read-out: IC50), in [2] (read-out: IC50) and in series [2] (read-out: pIC50 (converted)) was above 100 µM throughout.
On to `S=C([S-])NCc1cccnc1.[K+]`, for which the IC50 in series [1] (read-out: IC50) is 1.36 µM; at Replicase polyprotein 1a, 0.165 µM; in series [2] (read-out: pIC50 (converted)) it was 0.0269 µM; on Procathepsin L (read-out: IC50) it was 42.8 µM. Besides, the Activity result with Vero was “Toxic”.
As to `CCSC(=S)NCc1cccnc1`, the IC50 in series [1] (read-out: IC50) turned out to be 22.4 µM; in [2] (read-out: IC50) it was 0.178 µM.
For the compound `CC(C)C[C@H](NC(=O)OCc1ccccc1)C(=O)N[C@@H](CC1CCNC1=O)C(O)S(=O)(=O)O` (some centres not stated), the IC50 at Procathepsin L (read-out: pIC50 (converted)) is 0.000692 µM.
As for `S=C(NCc1cccnc1)SCc1ccccc1`, the IC50 was 9.36 µM in series [1] (read-out: IC50) and 0.023 µM in series [2] (read-out: IC50).
`Cc1cccc2nc(CSC(=S)NCc3cccnc3)cn12`: the inhibition in [3] is 80%. Moreover, the IC50 in series [1] (read-out: IC50) is 1.46 µM; in [1] (read-out: pIC50 (converted)), 1.41 µM; with SARS-CoV-2, 1.06 µM; against Replicase polyprotein 1a, 0.383 µM; in series [5], 0.008 µM; in series [2] (read-out: IC50) it was 0.021 µM. Further, the IC50 at Procathepsin L (read-out: IC50) worked out at 122 µM. The ΔTm in series [4] turned out to be 14.2 °C. Besides, the Activity result with Vero was “Non-Toxic”.
On to `Cc1cccc2nc(CNC(=S)NCc3cccnc3)cn12`, for which, in series [1], the negative-log IC50 (pIC50) is listed as below 4. Besides, the results for the IC50 in [1] (read-out: IC50) and in [2] (read-out: IC50) were above 100 µM and 35 µM, respectively.
